The values that follow come from patent US20150258220A1, “MAGNETIC RESONANCE IMAGING AND/OR SPECTROSCOPY CONTRAST AGENTS AND METHODS OF USE THEREOF” (Duke University, priority 2008, published 2015).

SMILES strings stand for the structures.

For data set [1] the following is noted: butter; cited from earlier work.
Data set [2] can be described thus: DNP hyperpolarization (Oxford HYPERSENSE), single-shot 13C NMR in water. It is filed as physicochemical. The note with it: hyperpolarized sample in water. The source says: FIG. 1 is a single-shot hyperpolarized ^13C nuclear magnetic resonance (NMR) spectrum of 2,3-^13C diacetyl in water. Hyperpolarized 2,3-^13C diacetyl was produced by a commercially available hyperpolarizer (Oxford HYPERSENSE™, Oxford Instruments Molecular Biotools Ltd., Tubney Woods, Abingdon, Oxfordshire, United Kingdom). The sample has about 20% nuclear polarization. The thermally polarized spectrum (not shown) is similar after many averages.
In some embodiments, the hyperpolarizing is performed by DNP. DNP refers to transferring spin polarization from electrons to nuclei. DNP can be performed by doping a material with a free radical. The unpaired electrons in the free radical can be polarized, for example, by exposure to a high magnetic field and low temperature. Irradiation at the electron paramagnetic resonance frequency can then serve to transfer polarization to the nuclei. By “hyperpolarization,” it is meant that the sample is polarized to a level over that found at room temperature and 1 Tesla, preferably polarized to a polarization degree in excess of 0.1%, more preferably 1%, even more preferably 10%.

A short description of data set [3]: 13C NMR inversion recovery of diacetyl / monohydrate in water. It is filed as physicochemical. The conditions noted are these: pH 7, water. The procedure: ^13C-labelled diacetyl was prepared from ^13C2 oxalate, which was reacted with N, N′-dimethylethylenediamine to afford 2,3-^13C2-1,4-dimethylpiperazine-2,3-dione in 97% yield. Two equivalents of methyl magnesium bromide were added to the piperazine dione to produce the dimethyl piperazine N,O-acetal. Crude acetal was hydrolyzed with 10% aqueous HCl to yield 2,3-^13C2-diacetyl, which was purified by fractional distillation. The carbonyl carbons in diacetyl are magnetically equivalent by symmetry, so at modest resolution (such as that commonly achieved in an imaging system), the spectrum is expected to have only a single line. Neat 2,3-^13C diacetyl does have a single line carbon-13 NMR spectrum, however the carbon spectrum in water has five lines. In water, the monohydrate (i.e., CH3—(^13C═O)(^13C(OH)2)CH3) with classic AX doublets (splitting JC-C=50 Hz) is the majority species. See Bell, Adv. Phys. Org. Chem., 4, 1 (1966); Bell and McDougall, Trans. Faraday Soc., 56, 1281-1285 (1960); and Greenzaid et al., J. Am. Chem. Soc., 89, 749 (1967). The dihydrate is undetectable. Equilibrium can be shifted back to diacetyl by changing solvent, and the rate of interconversion is pH dependent. At pH 7, inversion of the diacetyl alone causes recovery in 8 s, which gives the rate of dehydration. Inversion of all lines causes diacetyl to recover in 22 s.

With `CC(=O)C(C)=O` [diacetyl], in data set [1], the partitioning between phases entry was “mostly found in the fatty phase”. The nuclear polarization result in data set [2] was “about 20%”. Besides, in data set [3], the “recovery time after inversion of the diacetyl alone (gives the rate of dehydration)” value came out at 8 s and the “recovery time of diacetyl after inversion of all lines” value was 22 s.
